These results are taken from ChEMBL document CHEMBL1641464, “1-(Arylsulfonyl)-2,3-dihydro-1H-quinolin-4-one derivatives as 5-HT(6) serotonin receptor ligands” (Bioorg Med Chem Lett, 2011).

Structures are written as SMILES.

For data set [1], the target named is T1, 5-hydroxytryptamine receptor 6 (Homo sapiens, UniProt P50406). Briefly: Displacement of [3H]LSD from human 5HT6 receptor expressed in HEK293 cells. It is filed as cell-based.
Data set [2] deals with 5-hydroxytryptamine receptor 2A (Homo sapiens, UniProt P28223). Briefly: Displacement of [3H]ketanserin from human 5HT2A receptor expressed in cells. The format is cell-based.
Chain of 5-hydroxytryptamine receptor 2A (P28223 whole entry): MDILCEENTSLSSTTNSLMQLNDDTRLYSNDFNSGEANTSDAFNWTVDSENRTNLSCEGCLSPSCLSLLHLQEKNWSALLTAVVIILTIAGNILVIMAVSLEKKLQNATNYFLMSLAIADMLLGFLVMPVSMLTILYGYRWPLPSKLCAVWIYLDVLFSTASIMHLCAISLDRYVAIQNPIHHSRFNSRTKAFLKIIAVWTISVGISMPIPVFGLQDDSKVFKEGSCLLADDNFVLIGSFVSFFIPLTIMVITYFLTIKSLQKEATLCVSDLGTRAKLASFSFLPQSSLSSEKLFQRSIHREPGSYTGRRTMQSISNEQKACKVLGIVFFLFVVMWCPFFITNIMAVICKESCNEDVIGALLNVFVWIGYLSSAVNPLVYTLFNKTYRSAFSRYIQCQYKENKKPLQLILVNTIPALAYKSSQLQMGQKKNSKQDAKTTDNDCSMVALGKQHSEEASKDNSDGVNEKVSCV
A short description of data set [3]: Lipophilicity, log D of the compound. The following applies: octanol/water. It is filed as physicochemical.
The target in data set [4] is 5-hydroxytryptamine receptor 7 (Homo sapiens, UniProt P34969). Briefly: Displacement of [3H]LSD from human 5HT7 receptor expressed in cells. It is filed as cell-based.
Chain of 5-hydroxytryptamine receptor 7 (P34969 whole entry): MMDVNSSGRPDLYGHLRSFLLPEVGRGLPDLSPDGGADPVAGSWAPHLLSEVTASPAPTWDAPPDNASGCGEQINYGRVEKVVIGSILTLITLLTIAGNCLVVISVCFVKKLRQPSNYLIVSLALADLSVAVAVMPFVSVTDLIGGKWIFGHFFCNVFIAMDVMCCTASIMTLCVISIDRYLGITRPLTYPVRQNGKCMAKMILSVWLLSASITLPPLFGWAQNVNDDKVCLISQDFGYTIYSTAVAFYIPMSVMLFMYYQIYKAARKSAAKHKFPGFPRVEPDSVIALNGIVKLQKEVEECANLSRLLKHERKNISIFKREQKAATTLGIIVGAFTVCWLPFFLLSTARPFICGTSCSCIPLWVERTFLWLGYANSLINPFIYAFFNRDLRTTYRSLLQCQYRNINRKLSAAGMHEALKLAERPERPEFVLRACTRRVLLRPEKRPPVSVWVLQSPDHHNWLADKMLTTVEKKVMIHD
The target of the next data set is T2, D(4) dopamine receptor (Homo sapiens, UniProt P21917).
T2 sequence (P21917 whole entry): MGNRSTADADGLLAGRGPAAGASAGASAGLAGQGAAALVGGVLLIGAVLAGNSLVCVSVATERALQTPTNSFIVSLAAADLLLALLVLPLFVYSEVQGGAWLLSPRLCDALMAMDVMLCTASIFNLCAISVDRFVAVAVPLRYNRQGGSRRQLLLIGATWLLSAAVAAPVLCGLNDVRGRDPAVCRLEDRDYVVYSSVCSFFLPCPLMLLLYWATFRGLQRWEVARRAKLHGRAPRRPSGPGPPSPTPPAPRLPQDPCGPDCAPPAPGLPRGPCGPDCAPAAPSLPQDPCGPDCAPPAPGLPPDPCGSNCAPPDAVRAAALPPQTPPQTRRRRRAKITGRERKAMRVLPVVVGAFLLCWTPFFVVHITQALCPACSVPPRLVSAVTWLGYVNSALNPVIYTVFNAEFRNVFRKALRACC
Briefly: Displacement of [3H]spiperone from human dopamine D4 receptor expressed in cells. It is filed as cell-based.

The target of data set [5] is T3, 5-hydroxytryptamine receptor 1A (Homo sapiens, UniProt P08908).
T3 sequence (P08908 whole entry): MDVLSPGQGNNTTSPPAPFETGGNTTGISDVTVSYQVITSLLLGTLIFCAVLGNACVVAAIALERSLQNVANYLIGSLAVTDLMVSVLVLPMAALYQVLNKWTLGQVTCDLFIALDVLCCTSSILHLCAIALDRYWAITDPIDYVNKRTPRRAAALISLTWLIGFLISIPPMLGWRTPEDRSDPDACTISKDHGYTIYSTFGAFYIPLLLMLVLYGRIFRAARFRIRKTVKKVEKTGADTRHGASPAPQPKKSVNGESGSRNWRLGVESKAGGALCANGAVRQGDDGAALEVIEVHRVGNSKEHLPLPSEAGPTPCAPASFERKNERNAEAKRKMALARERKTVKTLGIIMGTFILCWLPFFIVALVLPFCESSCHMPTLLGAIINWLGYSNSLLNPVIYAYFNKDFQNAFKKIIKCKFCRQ
Nature of the data set: Displacement of [3H]8-OH-DPAT from human 5HT1A receptor expressed in cells. The format is cell-based.

The next data set deals with D(3) dopamine receptor (Homo sapiens, UniProt P35462). Briefly: Displacement of [3H]spiperone from human dopamine D3 receptor expressed in cells. The format is cell-based.
Chain of D(3) dopamine receptor (P35462 whole entry): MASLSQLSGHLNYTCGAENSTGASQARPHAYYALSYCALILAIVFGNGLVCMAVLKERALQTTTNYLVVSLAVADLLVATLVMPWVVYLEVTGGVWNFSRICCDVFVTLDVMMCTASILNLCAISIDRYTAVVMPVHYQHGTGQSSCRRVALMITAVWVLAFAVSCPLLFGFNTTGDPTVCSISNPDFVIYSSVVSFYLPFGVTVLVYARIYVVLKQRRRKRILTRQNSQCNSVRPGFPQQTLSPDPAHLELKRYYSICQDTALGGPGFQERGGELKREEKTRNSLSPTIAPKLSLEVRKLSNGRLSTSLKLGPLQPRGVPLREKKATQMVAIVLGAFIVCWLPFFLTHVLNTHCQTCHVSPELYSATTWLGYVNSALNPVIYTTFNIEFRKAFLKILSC
Data set [6] deals with T4, 5-hydroxytryptamine receptor 2C (Homo sapiens, UniProt P28335).
T4 sequence (P28335 whole entry): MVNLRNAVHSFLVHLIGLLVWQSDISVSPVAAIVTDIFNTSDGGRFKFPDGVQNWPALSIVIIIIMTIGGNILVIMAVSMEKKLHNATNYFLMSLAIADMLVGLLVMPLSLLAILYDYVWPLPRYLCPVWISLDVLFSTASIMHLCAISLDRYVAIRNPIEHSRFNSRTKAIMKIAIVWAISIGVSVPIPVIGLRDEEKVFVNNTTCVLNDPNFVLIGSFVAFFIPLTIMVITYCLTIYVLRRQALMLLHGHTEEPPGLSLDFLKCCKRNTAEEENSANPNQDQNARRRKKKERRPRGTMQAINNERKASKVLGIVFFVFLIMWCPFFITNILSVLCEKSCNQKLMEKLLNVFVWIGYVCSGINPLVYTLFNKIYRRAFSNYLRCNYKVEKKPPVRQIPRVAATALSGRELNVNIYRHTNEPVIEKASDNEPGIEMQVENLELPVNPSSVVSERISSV
Nature of the data set: Displacement of [3H]mesulergine from human 5HT2C receptor expressed in cells. The format is cell-based.

A further data set has as its target D(2) dopamine receptor (Homo sapiens, UniProt P14416). Nature of the data set: Displacement of [3H]spiperone from human dopamine D2 receptor expressed in cells. It is filed as cell-based.
Data set [7] deals with T1, 5-hydroxytryptamine receptor 6. Nature of the data set: Antagonist activity at human 5HT6 receptor expressed in HeLa cells assessed as inhibition of 5-HT-stimulated cAMP accumulation. It is filed as functional, cell-based.
Data set [8] shares this target. Nature of the data set: Binding affinity to 5HT6 receptor.

Chain of D(2) dopamine receptor (P14416 whole entry): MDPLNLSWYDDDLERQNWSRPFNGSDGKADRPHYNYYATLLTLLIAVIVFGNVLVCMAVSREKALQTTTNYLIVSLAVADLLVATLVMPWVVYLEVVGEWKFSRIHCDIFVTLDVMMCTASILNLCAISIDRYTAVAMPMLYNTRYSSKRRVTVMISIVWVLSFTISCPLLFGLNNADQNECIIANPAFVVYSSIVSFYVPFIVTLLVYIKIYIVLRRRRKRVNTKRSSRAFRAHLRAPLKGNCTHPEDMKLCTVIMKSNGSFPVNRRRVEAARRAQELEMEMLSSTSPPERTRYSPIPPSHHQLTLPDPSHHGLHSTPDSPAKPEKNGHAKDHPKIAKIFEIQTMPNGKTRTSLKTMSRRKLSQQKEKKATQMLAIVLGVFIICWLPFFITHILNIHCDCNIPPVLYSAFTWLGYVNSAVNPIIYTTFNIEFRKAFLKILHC
T1 sequence (P50406 whole entry): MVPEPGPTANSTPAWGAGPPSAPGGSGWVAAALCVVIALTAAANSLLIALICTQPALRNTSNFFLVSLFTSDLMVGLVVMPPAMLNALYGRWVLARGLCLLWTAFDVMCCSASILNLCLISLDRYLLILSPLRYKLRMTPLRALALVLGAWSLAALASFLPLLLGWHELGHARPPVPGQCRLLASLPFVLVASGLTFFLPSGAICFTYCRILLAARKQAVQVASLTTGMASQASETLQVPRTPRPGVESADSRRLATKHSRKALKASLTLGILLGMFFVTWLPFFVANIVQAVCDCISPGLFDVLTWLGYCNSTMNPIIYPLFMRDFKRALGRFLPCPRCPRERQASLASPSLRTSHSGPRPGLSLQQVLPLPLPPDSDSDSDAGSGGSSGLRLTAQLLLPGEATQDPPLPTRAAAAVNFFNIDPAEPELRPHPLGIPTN

The compound `CN1CCN(c2ccc3c(c2)C(=O)CCN3S(=O)(=O)c2ccc3ccccc3c2)CC1` displayed an IC50 in [1] of 311 nM.
In data set [1], `Cc1ccc(S(=O)(=O)N2CCC(=O)c3c(N4CCN(C)CC4)cccc32)cc1` showed an IC50 of 129 nM.
With `CC1CC(=O)c2c(N3CCN(C)CC3)cccc2N1S(=O)(=O)c1ccc2ccccc2c1` (stereo not given), the concentration for half-maximal inhibition (IC50) was determined as 48 nM in data set [2]; 2010 nM in data set [4]; 5520 nM at D(4) dopamine receptor; 1210 nM in data set [5]; 482 nM on D(3) dopamine receptor; 8 nM in data set [1]. The half-inhibitory concentration (IC50) in [6] is 30 nM; at D(2) dopamine receptor, more than 10000 nM. The same compound yielded a pH-dependent lipophilicity (logD) in data set [3] of 3.6.
In data set [1], `C[C@H]1CC(=O)c2ccc(N3CCN(C)CC3)cc2N1S(=O)(=O)c1ccc2ccccc2c1` came in with an IC50 of 17 nM.
With `CN1CCN(c2cccc3c2C(=O)CCN3S(=O)(=O)c2ccc3ccccc3c2)CC1`, the IC50 in data set [2] amounted to 760 nM; in data set [4], 620 nM; on D(4) dopamine receptor, 1790 nM; in data set [5], 333 nM; on D(3) dopamine receptor, 2920 nM; in data set [1], 61 nM. Moreover, the IC50 is 438 nM in data set [6] and more than 10000 nM at D(2) dopamine receptor.
For the compound `CN1CCN(c2ccc3c(c2)N(S(=O)(=O)c2ccc4ccccc4c2)CCC3=O)CC1`, the IC50 in data set [7] came out at 188 nM; in data set [2] it was 366 nM; in data set [4], 143 nM; at D(4) dopamine receptor, 3610 nM; in data set [5], 672 nM; on D(3) dopamine receptor, 1300 nM. Further, the IC50 in data set [1] is 26 nM; in data set [6], 5190 nM; on D(2) dopamine receptor, more than 10000 nM.
Compound `CN1CCN(c2cc(Cl)cc3c2C(=O)CCN3S(=O)(=O)c2ccc3ccccc3c2)CC1` had an IC50 in data set [1] of 47 nM.
`Cc1cc(N2CCN(C)CC2)c2c(c1)N(S(=O)(=O)c1ccc3ccccc3c1)C(C)CC2=O` (stereo not given): the IC50 in [2] is 704 nM; in data set [4] it was more than 10000 nM; on D(4) dopamine receptor it was more than 10000 nM; in data set [5], 1230 nM; on D(3) dopamine receptor, 180 nM; in data set [1] it was 11 nM. Also, the half-inhibitory concentration (IC50) in data set [6] worked out at 19 nM; on D(2) dopamine receptor, 1780 nM.
For the compound `COc1ccc(NS(=O)(=O)c2sc3ccc(Cl)cc3c2C)cc1N1CCN(C)CC1`, the log distribution coefficient (logD) in [3] came out at 2.99.
For `C[C@@H]1CC(=O)c2ccc(N3CCN(C)CC3)cc2N1S(=O)(=O)c1ccc2ccccc2c1`, the 50% inhibitory concentration (IC50) in [1] was found to be 43 nM.
Regarding `COc1cc2c(cc1N1CCN(C)CC1)N(S(=O)(=O)c1ccc3ccccc3c1)CCC2=O`, the IC50 in data set [1] was determined as 165 nM.
Still for that read-out and setting: as for `Cc1c(S(=O)(=O)N2CCC(=O)c3ccc(N4CCN(C)CC4)cc32)sc2ccc(Cl)cc12`, the figure is 419 nM.
On to `CC1CC(=O)c2ccc(N3CCN(C)CC3)cc2N1S(=O)(=O)c1ccc2ccccc2c1` (stereo not given), for which the 50% inhibitory concentration (IC50) in data set [2] was 1460 nM; in data set [4], more than 10000 nM; at D(4) dopamine receptor it was more than 10000 nM; in [5] it was 1600 nM; on D(3) dopamine receptor, 1520 nM; in data set [1], 28 nM. Moreover, the values for the half-inhibitory concentration (IC50) (in data set [6]; at D(2) dopamine receptor) were 558 nM and 136 nM, respectively. Further, in data set [3], the logD amounted to 3.2.
Regarding `CN1CCN(c2cc(Br)cc3c2C(=O)CCN3S(=O)(=O)c2ccc3ccccc3c2)CC1`, the half-maximal inhibitory concentration (IC50) in data set [1] came to 58 nM.
`C[C@@H]1CC(=O)c2c(N3CCN(C)CC3)cccc2N1S(=O)(=O)c1ccc2ccccc2c1` displayed a 50% inhibitory concentration (IC50) in [1] of 353 nM.
Compound `Cc1ccc2c(c1N1CCN(C)CC1)C(=O)CC(C)N2S(=O)(=O)c1ccc2ccccc2c1` (stereo not given) had an IC50 in data set [1] of 15 nM.
In turn, `C[C@H]1CC(=O)c2c(N3CCN(C)CC3)cccc2N1S(=O)(=O)c1ccc2ccccc2c1` displayed an IC50 in [1] of 7 nM.
Take `CC1CC(=O)c2c(N3CCNCC3)cccc2N1S(=O)(=O)c1ccc2ccccc2c1` (stereo not given): the IC50 in [1] turned out to be 42 nM.
For the compound `CSc1nn2c(N3CCNCC3)c3c(nc2c1S(=O)(=O)c1ccccc1)CCC3`, the Ki in data set [8] is 2.51 nM.
`CCC1CC(=O)c2c(N3CCN(C)CC3)cccc2N1S(=O)(=O)c1ccc2ccccc2c1` (stereo not given): the IC50 is 455 nM in [2]; more than 10000 nM in data set [4]; more than 10000 nM at D(4) dopamine receptor; 999 nM in [5]; 623 nM on D(3) dopamine receptor; 9 nM in data set [1]. Also, the results for the concentration for half-maximal inhibition (IC50) (in data set [6]; at D(2) dopamine receptor) were 4 nM and more than 1000 nM, respectively.
